Earlier results, collected in patent US20070117837A1, “Process for the preparation of amorphous form of a platelet aggregation inhibitor drug” (EGIS GYOGYSZERGYAR RT., priority 2003, published 2007).

Conditions: amorphous form compared with its morphologically uniform crystalline forms

biological availability: better
Compound: CC(C)c1c(C(=O)Nc2ccccc2)c(-c2ccccc2)c(-c2ccc(F)cc2)n1CC[C@@H](O)C[C@@H](O)CC(=O)O [atorvastatine calcium]
